Measurements taken from patent US9695155B2, “Herbicidal substituted pyrimidinyloxy benzene compounds” (E. I. DU PONT DE NEMOURS AND COMPANY, priority 2013, dated 2017).

Key:
Assay in all cases: Test E preemergence
soybean = type: in vivo, Glycine max; conditions: for Soybean plant response rating: scale 0 to 100 (0 no effect, 100 complete control); for Plant response rating, Soybean: scale 0 to 100, 0 no effect, 100 complete control
Procedure, shortened: (§1)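 Test chemicals formulated in a non-phytotoxic solvent mixture containing a surfactant were applied preemergence to seeds in silt loam soil or postemergence to plants at the 1- to 4-leaf stage in potting mix. After 14 to 21 days in a greenhouse, injury was visually rated against controls on a 0-100 scale (0 = no effect, 100 = complete control).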

palmer pigweed = type: in vivo, Amaranthus palmeri; conditions: for Pigweed, Palmer plant response rating: scale 0 to 100 (0 no effect, 100 complete control); for Plant response rating, Pigweed, Palmer: scale 0 to 100, 0 no effect, 100 complete control
Procedure, shortened: as §1

fall panicum = type: in vivo, Panicum dichotomiflorum; conditions: for Panicum, Fall plant response rating: scale 0 to 100 (0 no effect, 100 complete control); for Plant response rating, Panicum, Fall: scale 0 to 100, 0 no effect, 100 complete control
Procedure, shortened: as §1

goosegrass = type: in vivo, Eleusine indica; conditions: for Goosegrass plant response rating: scale 0 to 100 (0 no effect, 100 complete control); for Plant response rating, Goosegrass: scale 0 to 100, 0 no effect, 100 complete control
Procedure, shortened: as §1

johnsongrass = type: in vivo, Sorghum halepense; conditions: for Johnsongrass plant response rating: scale 0 to 100 (0 no effect, 100 complete control); for Plant response rating, Johnsongrass: scale 0 to 100, 0 no effect, 100 complete control
Procedure, shortened: as §1

ragweed = type: in vivo, Ambrosia elatior; conditions: for Ragweed plant response rating: scale 0 to 100 (0 no effect, 100 complete control); for Plant response rating, Ragweed: scale 0 to 100, 0 no effect, 100 complete control
Procedure, shortened: as §1

barnyardgrass = type: in vivo, Echinochloa crus-galli; conditions: for Barnyardgrass plant response rating: scale 0 to 100 (0 no effect, 100 complete control); for Plant response rating, Barnyardgrass: scale 0 to 100, 0 no effect, 100 complete control
Procedure, shortened: as §1

arrowleaf sida = type: in vivo, Sida rhombifolia; conditions: for Arrowleaf Sida plant response rating: scale 0 to 100 (0 no effect, 100 complete control); for Plant response rating, Arrowleaf Sida: scale 0 to 100, 0 no effect, 100 complete control
Procedure, shortened: as §1

Italian ryegrass = type: in vivo, Lolium multiflorum; conditions: for Ryegrass, Italian plant response rating: scale 0 to 100 (0 no effect, 100 complete control); for Plant response rating, Ryegrass, Italian: scale 0 to 100, 0 no effect, 100 complete control
Procedure, shortened: as §1

dayflower = type: in vivo, Commelina virginica; conditions: for Dayflower, VA plant response rating: scale 0 to 100 (0 no effect, 100 complete control); for Plant response rating, Dayflower, VA: scale 0 to 100, 0 no effect, 100 complete control
Procedure, shortened: as §1

morningglory = type: in vivo, Ipomoea coccinea; conditions: for Morningglory plant response rating: scale 0 to 100 (0 no effect, 100 complete control); for Plant response rating, Morningglory: scale 0 to 100, 0 no effect, 100 complete control
Procedure, shortened: as §1

## N#Cc1cccc(Oc2ncc(Cl)cn2)c1-n1cc(C(F)(F)F)cn1 [Compound 58, 3-[(5-chloro-2-pyrimidinyl)oxy]-2-[4-(trifluoromethyl)-1H-pyrazol-1-yl]benzonitrile]
soybean; 16 g ai/ha
  Soybean plant response rating: 0
soybean; 31 g ai/ha
  Soybean plant response rating: 0
soybean; 62 g ai/ha
  Soybean plant response rating: 60
soybean; 125 g ai/ha
  Plant response rating, Soybean: 75
soybean; 250 g ai/ha
  Plant response rating, Soybean: 95
Palmer pigweed; 16 g ai/ha
  Pigweed, Palmer plant response rating: 100
Palmer pigweed; 31 g ai/ha
  Pigweed, Palmer plant response rating: 100
Palmer pigweed; 62 g ai/ha
  Pigweed, Palmer plant response rating: 100
Palmer pigweed; 125 g ai/ha
  Plant response rating, Pigweed, Palmer: 100
Palmer pigweed; 250 g ai/ha
  Plant response rating, Pigweed, Palmer: 100
Fall panicum; 16 g ai/ha
  Panicum, Fall plant response rating: 95
Fall panicum; 31 g ai/ha
  Panicum, Fall plant response rating: 98
Fall panicum; 62 g ai/ha
  Panicum, Fall plant response rating: 100
Fall panicum; 125 g ai/ha
  Plant response rating, Panicum, Fall: 100
Fall panicum; 250 g ai/ha
  Plant response rating, Panicum, Fall: 100
goosegrass; 16 g ai/ha
  Goosegrass plant response rating: 10
goosegrass; 31 g ai/ha
  Goosegrass plant response rating: 70
goosegrass; 62 g ai/ha
  Goosegrass plant response rating: 95
goosegrass; 125 g ai/ha
  Plant response rating, Goosegrass: 100
goosegrass; 250 g ai/ha
  Plant response rating, Goosegrass: 100
johnsongrass; 31 g ai/ha
  Johnsongrass plant response rating: 35
johnsongrass; 62 g ai/ha
  Johnsongrass plant response rating: 95
johnsongrass; 125 g ai/ha
  Plant response rating, Johnsongrass: 95
johnsongrass; 250 g ai/ha
  Plant response rating, Johnsongrass: 100
ragweed; 16 g ai/ha
  Ragweed plant response rating: 0
ragweed; 31 g ai/ha
  Ragweed plant response rating: 0
ragweed; 62 g ai/ha
  Ragweed plant response rating: 5
ragweed; 125 g ai/ha
  Plant response rating, Ragweed: 50
ragweed; 250 g ai/ha
  Plant response rating, Ragweed: 85
barnyardgrass; 16 g ai/ha, preemergence
  Barnyardgrass plant response rating: 20
barnyardgrass; 31 g ai/ha, preemergence
  Barnyardgrass plant response rating: 40
barnyardgrass; Preemergence, 62 g ai/ha
  Plant response rating, Barnyardgrass: 90
barnyardgrass; preemergence, 125 g ai/ha
  Plant response rating, Barnyardgrass: 95
barnyardgrass; preemergence, 250 g ai/ha
  Plant response rating, Barnyardgrass: 98
Arrowleaf sida; 16 g ai/ha, preemergence
  Arrowleaf Sida plant response rating: 80
Arrowleaf sida; 31 g ai/ha, preemergence
  Arrowleaf Sida plant response rating: 100
Arrowleaf sida; Preemergence, 62 g ai/ha
  Plant response rating, Arrowleaf Sida: 100
Arrowleaf sida; preemergence, 125 g ai/ha
  Plant response rating, Arrowleaf Sida: 100
Arrowleaf sida; preemergence, 250 g ai/ha
  Plant response rating, Arrowleaf Sida: 100
Italian ryegrass; 16 g ai/ha
  Ryegrass, Italian plant response rating: 30
Italian ryegrass; 31 g ai/ha
  Ryegrass, Italian plant response rating: 35
Italian ryegrass; 62 g ai/ha
  Ryegrass, Italian plant response rating: 75
Italian ryegrass; 125 g ai/ha
  Plant response rating, Ryegrass, Italian: 98
Italian ryegrass; 250 g ai/ha
  Plant response rating, Ryegrass, Italian: 98
dayflower; 16 g ai/ha
  Dayflower, VA plant response rating: 5
dayflower; 31 g ai/ha
  Dayflower, VA plant response rating: 20
dayflower; 62 g ai/ha
  Dayflower, VA plant response rating: 70
dayflower; 125 g ai/ha
  Plant response rating, Dayflower, VA: 98
dayflower; 250 g ai/ha
  Plant response rating, Dayflower, VA: 98
morningglory; 31 g ai/ha
  Morningglory plant response rating: 50
morningglory; 62 g ai/ha
  Morningglory plant response rating: 100
morningglory; 125 g ai/ha
  Plant response rating, Morningglory: 100
morningglory; 250 g ai/ha
  Plant response rating, Morningglory: 100

## N#Cc1cnn(-c2c(C#N)cccc2Oc2ncc(F)cn2)c1 [Compound 111]
soybean; 16 g ai/ha
  Soybean plant response rating: 0
soybean; 31 g ai/ha
  Soybean plant response rating: 20
soybean; 62 g ai/ha
  Soybean plant response rating: 40
soybean; 125 g ai/ha
  Plant response rating, Soybean: 70
Palmer pigweed; 16 g ai/ha
  Pigweed, Palmer plant response rating: 10
Palmer pigweed; 31 g ai/ha
  Pigweed, Palmer plant response rating: 20
Palmer pigweed; 62 g ai/ha
  Pigweed, Palmer plant response rating: 100
Palmer pigweed; 125 g ai/ha
  Plant response rating, Pigweed, Palmer: 100
Fall panicum; 16 g ai/ha
  Panicum, Fall plant response rating: 0
Fall panicum; 31 g ai/ha
  Panicum, Fall plant response rating: 5
Fall panicum; 62 g ai/ha
  Panicum, Fall plant response rating: 80
Fall panicum; 125 g ai/ha
  Plant response rating, Panicum, Fall: 100
goosegrass; 16 g ai/ha
  Goosegrass plant response rating: 0
goosegrass; 31 g ai/ha
  Goosegrass plant response rating: 5
goosegrass; 62 g ai/ha
  Goosegrass plant response rating: 40
goosegrass; 125 g ai/ha
  Plant response rating, Goosegrass: 65
johnsongrass; 16 g ai/ha
  Johnsongrass plant response rating: 0
johnsongrass; 31 g ai/ha
  Johnsongrass plant response rating: 0
johnsongrass; 62 g ai/ha
  Johnsongrass plant response rating: 15
johnsongrass; 125 g ai/ha
  Plant response rating, Johnsongrass: 70
ragweed; 16 g ai/ha
  Ragweed plant response rating: 25
ragweed; 31 g ai/ha
  Ragweed plant response rating: 50
ragweed; 62 g ai/ha
  Ragweed plant response rating: 70
ragweed; 125 g ai/ha
  Plant response rating, Ragweed: 90
barnyardgrass; 16 g ai/ha, preemergence
  Barnyardgrass plant response rating: 0
barnyardgrass; 31 g ai/ha, preemergence
  Barnyardgrass plant response rating: 0
barnyardgrass; Preemergence, 62 g ai/ha
  Plant response rating, Barnyardgrass: 0
barnyardgrass; preemergence, 125 g ai/ha
  Plant response rating, Barnyardgrass: 35
Arrowleaf sida; 16 g ai/ha, preemergence
  Arrowleaf Sida plant response rating: 40
Arrowleaf sida; 31 g ai/ha, preemergence
  Arrowleaf Sida plant response rating: 50
Arrowleaf sida; Preemergence, 62 g ai/ha
  Plant response rating, Arrowleaf Sida: 70
Arrowleaf sida; preemergence, 125 g ai/ha
  Plant response rating, Arrowleaf Sida: 98
Italian ryegrass; 16 g ai/ha
  Ryegrass, Italian plant response rating: 0
Italian ryegrass; 31 g ai/ha
  Ryegrass, Italian plant response rating: 0
Italian ryegrass; 62 g ai/ha
  Ryegrass, Italian plant response rating: 0
Italian ryegrass; 125 g ai/ha
  Plant response rating, Ryegrass, Italian: 20
dayflower; 16 g ai/ha
  Dayflower, VA plant response rating: 0
dayflower; 31 g ai/ha
  Dayflower, VA plant response rating: 0
dayflower; 62 g ai/ha
  Dayflower, VA plant response rating: 20
dayflower; 125 g ai/ha
  Plant response rating, Dayflower, VA: 20
morningglory; 16 g ai/ha
  Morningglory plant response rating: 20
morningglory; 31 g ai/ha
  Morningglory plant response rating: 35
morningglory; 62 g ai/ha
  Morningglory plant response rating: 75
morningglory; 125 g ai/ha
  Plant response rating, Morningglory: 75
